Data on 8 molecules can be found in article PMC8199030, “Salvia officinalis L.: Antitrypanosomal Activity and Active Constituents against Trypanosoma brucei rhodesiense” (Molecules, 2021).

Structures are written as SMILES. In brackets after ≈: the same amount, converted by molar mass. Several values for one entry are separate records, joined by “and”; a condition that tells them apart may be missing. Identical values can stand only once. Like-named read-outs stand apart in the source and are kept apart here.

The subject of data set [1] is Trypanosoma brucei rhodesiense (Tbr, bloodstream-form trypomastigotes, STIB 900 strain). As to the kind of experiment: microbe, parasite or virus in culture. As to conditions: Trypanosoma brucei, read-out: IC50 Tbr (STIB 900). As to the method: (§1) Samples with a defined concentration of 2 mg/mL were prepared of each fraction and analyzed by UHPLC/ESI-QqTOF-MS (henceforth abbreviated LC/MS) to determine the analytical fingerprints. After the analysis and dereplication of major peaks (see Figure S1 and Table S1 in Supplementary Material) as well as comparison of the samples’ analytical profiles, 17 representative fractions were selected to be assayed in vitro against Tbr. […] IC50 values for the individual fractions were not determined, in order to save resources and since the % GI data can serve as an approximate substitute in cases where relative activities of similar samples such as the fractions under study are compared.
(§2) Melarsoprol was used as positive control. The cytotoxicity of the compounds was assessed using L6 rat skeletal myoblast cells and podophyllotoxin as a reference drug.
(§3) In vitro assays for the bioactivity against Trypanosoma brucei rhodesiense (Tbr, bloodstream-form trypomastigotes, STIB 900 strain) and cytotoxicity tests against mammalian cells (L6-cell-line from rat skeletal myoblasts) were performed at the Swiss Tropical and Public Health Institute (Swiss TPH, Basel, Switzerland), according to established protocols and as previously described.

The nature of another data set: in vitro. As to conditions: rat. Here is the method: as §1, §2, §3
Data set [2] in a line: Cytotoxicity against mammalian L6 cells. It counts as cell-based. As to conditions: rat.
The subject of data set [3] is Trypanosoma brucei rhodesiense (Tbr, bloodstream-form trypomastigotes, STIB 900 strain). As to conditions: cited from earlier work.
Setting [4] is: mean of two independent determinations ± deviation from the mean, read-out: IC50 Cytotox L6.
Setting [5] is: mean of two independent determinations, read-out: IC50 Cytotox L6.

Turning to `CO[C@H]1c2cc(C(C)C)c(O)c(O)c2[C@@]23CCCC(C)(C)[C@@H]2[C@@H]1OC3=O` [7-O-Methylrosmanol (5), 7-O-methylrosmanol], the 50% inhibitory concentration (IC50) in data set [1] is 8.3 µg/mL and 23 µM; in data set [2] (setting [4]), 6.6 ± 0.8 µg/mL; in data set [2] (setting [5]), 18 µM. The selectivity ratio in the data set “in vitro” amounted to 0.8.
Turning to `COc1c(C(C)C)cc2c(c1O)[C@@]1(C(=O)O)CCCC(C)(C)[C@@H]1CC2` [12-O-Methylcarnosic acid (8), 12-O-methylcarnosic acid], the IC50 in data set [1] is 15 µg/mL and 44 µM; in data set [2], 20 µg/mL and 56 µM. In addition, the selectivity ratio in the data set “in vitro” was determined as 1.3.
As for `COc1cc2oc(-c3ccc(O)cc3)cc(=O)c2c(O)c1OC` [Cirsimaritin (1), 4’,5-dihydroxy-6,7-dimethoxyflavone], the selectivity ratio in the data set “in vitro” was found to be 2.8. For the same molecule, in data set [3] (previous study), the “IC50 against Tbr, previous study” value is given as 3.3 µg/mL (≈ 10.5 µM). Also, in data set [2], the IC50 was 4.6 µg/mL and 15 µM.
In the case of `CC(C)c1cc2c(c(O)c1O)[C@@]13CCCC(C)(C)[C@@H]1[C@H](OC3=O)[C@H]2O` [Compound 3, rosmanol], in data set [1], the half-maximal inhibitory concentration (IC50) was approximately 8.3 µg/mL (≈ 24 µM).
For `CC(C)c1cc2c(c(O)c1O)[C@@]13CCCC(C)(C)[C@@H]1[C@H](OC3=O)[C@@H]2O` [Epirosmanol (2), epirosmanol], the IC50 was 3.2 µg/mL and 9.3 µM in data set [1]; 5 µg/mL and 15 µM in data set [2]. Moreover, in “in vitro”, the selectivity ratio came out at 1.6.
With `C=C[C@](C)(O)CC[C@H]1C(=C)CC[C@H]2C(C)(C)CCC[C@]12C` [Manool (9), manool], the selectivity ratio in the data set “in vitro” was found to be 2.1. The IC50 in data set [2] (setting [4]) is 5.6 ± 0.5 µg/mL; in data set [2] (setting [5]) it was 19 µM.
Regarding `CC(C)C1=Cc2ccc3c(c2C(=O)C1=O)CCCC3(C)C` [Miltirone, miltirone, reference compound], the “activity against Tbr, previously reported” value in data set [3] is “very potent activity”.
For `COc1cc([C@@H]2c3cc4c(cc3[C@H](O)[C@H]3COC(=O)[C@H]23)OCO4)cc(OC)c1OC` [Podophyllotoxin, reference compound], the results for the IC50 in data set [2] (setting [4]) and in data set [2] (setting [5]) were 0.009 ± 0.001 µg/mL and 0.022 µM, respectively.

Usually IC50 stands for the concentration at which inhibition is half-maximal.
